# Results from patent US9127079B2, “Inhibitors of phosphatase and tensin homolog (PTEN) conjugates” (THE UNIVERSITY OF BRITISH COLUMBIA, priority 2009, dated 2015).
# Columns and labels:
# [1] = Body asymmetry (elevated body swing test) after cerebral ischemia; assay type: in vivo, rat; conditions: vs Peptide-K13R, Peptide-K289, saline
# Protocol: Adult male Sprague-Dawley rats (weight 200 g) were used in this study. All surgical procedures were performed using sterile/aseptic techniques in accordance with Institutional guidelines. Rats were anesthetized with chloral hydrate (0.4 g/kg IP) and subjected to cerebral ischemia. Ligation of the right middle cerebral artery (MCA) and bilateral common carotids arteries (CCAs) was performed by methods described previously (Shyu et al. 2005). The CCAs were clamped with non-traumatic arterial clips. The right MCA was ligated with a 10-0 nylone suture. After 90 min of ischemia, the suture on the MCA and the arterial clips on the CCAs were removed to allow reperfusion. Core body temperature was monitored with a thermistor probe (Hewlett-Packard™ Model 21090A probe, Hewlett-Packard Company™, Andover, Mass.), and maintained at 37° C. with a heating pad during anesthesia. […]
# Behavioral assessments were measured on day 28 after stroke. […] The baseline-test scores were recorded in order to normalize those taken after cerebral ischemia. The elevated body swing test (EBST) was used to assess body asymmetry after MCA ligation and evaluated quantitatively as previously described (Shyu et al. 2004). […] The frequency of initial head swing contra-lateral to the ischemic side was counted in twenty continuous tests and was normalized, as follows: % recovery=[1−(lateral swings in twenty tests−10)/10×100%. […]
# [2] = Transgenic G37R SOD1 mouse model of ALS: survival and behavioural outcomes; assay type: in vivo; conditions: IP 16 mg/kg 3 times a week
# Protocol: Transgenic mice expressing G37R SOD1 (G37R) at almost 8 months of age and having no apparent pathologic symptoms were double blinded with a designated code and divided into 3 groups of 12 mice (6 male and 6 female) maintained on a pure C57BL6 background in the local animal facility under a 12 h light cycle with food and drinking water ad libitum. All mice were genotyped by PCR. The use of animals as described in this study was carried out according to The Guide to the Care and Use of Experimental Animals of the Canadian Council on Animal Care. […].
# Body weight and neurological scores such as HLR scores and Rota Rod functions were regularly monitored and recorded. End points and survival dates were determined when mice were not able to stand up within 20 s when moved on the side. Disabled mice were anesthetized and sacrificed according to the guidelines of The University of British Columbia for the care and use of laboratory animals. All collected data were subjected to statistical analysis using Kaplan-Meier plots and Log-rank tests.
# transplanted iPS-NPCs = assay: Survival of iPS-NPCs transplanted intracerebrally after focal cerebral ischemia in the rat (TUNEL); assay type: in vivo
# From the text: iPS-MEF-Ng-20D-17 from Kyoto University, and Cell Bank of RIKEN BioResource Center of Japan (Okita K. et al. Nature (2007) 448(7151):313-17) was induced into iPS-NPCs using a multistage differentiation protocol with some modifications (Kumagai G. et al. PLoS ONE (2009) 4(11):e7706). In brief, the human iPS cells expanding on irradiated MEF feeder cells were passaged, and then transferred to nonadherent culture dishes where they readily formed spheroid embryoid bodies (EBs). Clusters of neuroepithelial-like cells could be isolated and propagated from EBs in the medium of DMEM-F12, N2 supplement (1%; Invitrogen), and 20 ng/mL FGF-2 (R&D Systems™, Germany).
# Prior to transplantation, the iPS-NPSs were labeled using 1 μg/mL bis-benzimide (Hoechst™ 33342; Sigma™) for 1 hours at 37° C. as previously described (Shyu W C. et al. J Clin Invest (2008) 118(1):133-148). Labeled cells were then collected and washed in PBS three times. iPS-NPCs were counted using a cytometer to ensure an adequate cell number for transplantation. One week after brain ischemia, adult male Sprague-Dawley rats (weight >300 g) were anesthetized with chloral hydrate (0.4 g/kg, ip) and injected stereotaxically with approximately 1×10^6 cells in a 3-5 μL PBS suspension through a 26-gauge Hamilton syringe into 3 cortical areas adjacent to the right MCA, 3.0 to 5.0 mm below the dura. […]
substance,measurement,setting,value
KEIVSRNKRRYQED-YGRKKRRQRRR (KEIVSRNKRRYQEDYGRKKRRQRRR; PTEN K13 interference peptide conjugated to TAT protein transduction domain) [Peptide-K13],recovery in body swing tests,[1]; given 2 hours after ischemia,much more recovery
same,recovery in body swing tests,[1]; given 6 hours after ischemia,much more recovery
same,behavioural outcomes,[2]; female ALS mice,improves behavioural outcomes
same,survival,[2]; female ALS mice,prolongs the survival
same,survival,[2]; male ALS mice,no statistically significant improvement
same,TUNEL positive transplanted iPS-NPCs,"transplanted iPS-NPCs; 7 days after transplantation, vs saline-treated rats, n=6",significantly fewer
same,survival rate of transplanted iPS-NPCs,"transplanted iPS-NPCs; intravenous 8.4 mg/kg once a day for 7 days following transplantation, ischemic rat",significantly increased
